Results taken from patent US5441950A, “Substituted dibenzoxazepine and dibenzthiazepine carbamate compounds, pharmaceutical compositions and methods of use” (G. D. Searle & Co., priority 1994, dated 1995).
Counter-ions that a name gives are not always drawn. Like-named read-outs stand apart in the source and are kept apart here.

Legend:
[1] = test system: mice; assay: Writhing Assay (PBQ-induced writhing, analgesia, intragastric); format: in vivo, mouse (Charles River male albino mice); conditions: for responders at 30 mg/kg: ip, 0.5 h, read-out: WRITHING ASSAY, number of mice out of nine or ten in which the test compound produced analgesia
Source text: The Writhing Assay is one of the most widely-used experimental procedures for measuring the analgesic activity of different narcotic and nonnarcotic analgesic agents, and involves the continuous, chemically-induced pain of visceral origin to an animal, such as a mouse or rat. [Gyires et al., Arch. int. […] Chemicals which may be used to induce this pain include phenylbenzoquinone (PBQ) and acetic acid. As a result of the chemical irritation to the animal, a characteristic stretching and writhing of the animal (dorsiflexion of the animal's back, extension of its hindlimbs and the strong contraction of its abdominal musculature) will generally occur. […] Drugs which reduce the number of writhes of the animal appear to restore the normal nociceptive threshold of the animal. […] Charles River male albino mice, weighing 20 to 30 grams, were used in this assay. […] Ten mice which were given saline in place of a test compound of the invention were used as a control group. Five minutes later, each mouse was individually placed into a glass beaker for observation, and the number of writhes occurring during the following ten-minute period was counted. […] The standard initial screening dose of a test compound employed in this assay was 30 mpk […].

[2] = molecular target: T1, prostaglandin E2 -induced contractions of segments of guinea pig ileum (Cavia porcellus, UniProt A0A286XHJ6); assay: Prostaglandin (PGE) Antagonism Assay (prostaglandin E2-induced contractions of guinea pig ileum segments); conditions: for PGE in guinea pig ileum, dose ratio: dose ratio of prostaglandin E2 EC50 doses, initial test concentration 3 micromolar
T1 construct: The ilea were then quickly removed from the guinea pigs; from tissue; host or cells: guinea pig ileum segments (male albino guinea pigs)
T1 sequence (A0A286XHJ6 1-405): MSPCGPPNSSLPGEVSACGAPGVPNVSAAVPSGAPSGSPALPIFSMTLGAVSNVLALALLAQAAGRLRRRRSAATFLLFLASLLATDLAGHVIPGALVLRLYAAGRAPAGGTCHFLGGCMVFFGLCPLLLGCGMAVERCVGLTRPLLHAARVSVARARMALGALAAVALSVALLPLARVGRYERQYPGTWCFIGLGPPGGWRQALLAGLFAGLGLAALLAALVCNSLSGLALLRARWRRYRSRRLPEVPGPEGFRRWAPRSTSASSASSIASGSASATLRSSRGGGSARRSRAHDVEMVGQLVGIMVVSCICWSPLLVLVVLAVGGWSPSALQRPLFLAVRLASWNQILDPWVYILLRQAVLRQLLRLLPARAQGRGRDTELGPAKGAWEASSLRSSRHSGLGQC
Source text: The ilea were then quickly removed from the guinea pigs and placed in a modified Tyrode solution, a solution which is known to those skilled in the art, containing one-half of the usual amount of magnesium ions. […] Data for a control prostaglandin E2 dose response curve plotting concentration of prostaglandin E2 versus the intensity of contractions, detected isotonically, was then obtained by experimentally adjusting the dose of the prostaglandin E2 being injected into the tissue bath, in a manner known by those of skill in the art. Solutions or suspensions containing an initial concentration (3 micromolar) of a test compound in modified Tyrode solution ("test solutions/suspensions") were then separately substituted for the control bath solution. Each test solution/suspension was then kept in constant contact with the ileum tissue, except for brief periods to drain the bath in preparation for rinsing with fresh test solution/suspension. A second prostaglandin E2 dose response curve was then generated for prostaglandin E2 in the presence of a test compound. A dose ratio of EC50 doses was then calculated from the results of each test in a manner known by those of skill in the art.

[3] = Mus musculus, 30 mg per kilogram, I.G., 30 min before PBQ i.p., writhes <= one-half the control median

SMILES | responders at 30 mg/kg [1, 3] [%] | PGE in guinea pig ileum, dose ratio [2] | other results
O=C(CNC(=O)N1Cc2ccccc2Oc2ccc(Cl)cc21)NCc1ccncc1 [Example 6, 8-chloro-N-[[[(4-pyridinylmethyl)amino]carbonyl]methyl]-10(11H)-dibenz[b,f][1,4]oxazepinecarboxamide, hydrochloride] | 60 |  | Kb ([2]; Schild plot, prostaglandin E2-induced contractions, read-out: PGE in guinea pig ileum, pA2 (converted)): 955 nM
Cl.O=C(CNC(=O)N1Cc2ccccc2Oc2ccc(Cl)cc21)NCCc1ccccn1 [Example 8, 8-chloro-N-[[[[2-(2-pyridinyl)ethyl]amino]carbonyl]methyl]-10(11H) dibenz[b,f][1,4]oxazepinecarboxamide hydrochloride] | 30 | 11.02 | 
O=C(OCCCc1ccncc1)N1Cc2ccccc2Oc2ccc(Cl)cc21 [Example 10, 3-(4-pyridinyl)propyl 8-chloro-10(11H)dibenz[b,f][1,4]oxazepinecarboxylate,monohydrochloride] | 30 | 2.63 | 
CN(C)Cc1ccc(COC(=O)N2Cc3ccccc3Oc3ccc(Cl)cc32)o1 [Example 12, [2-(dimethylaminomethyl)furan-5-yl]methyl-8-chlorodibenz[b,f][1,4]oxazepine-10(11H)carboxylate, monohydrochloride] | 20 |  | 
O=C(OCCCNCc1ccncc1)N1Cc2ccccc2Oc2ccc(Cl)cc21 [Example 14, 3-[[(4-pyridinyl)methyl]amino]propyl-8-chlorodibenz[b, f][1,4]oxazepine-10(11H)carboxylate, hydrochloride] | 50 | 25.03 | 
O=C(CNC(=O)N1Cc2ccccc2Oc2ccc(Cl)cc21)Nc1ccncc1 [Example 16, 8-chloro-N-[[[(4-pyridinyl)amino]carbonyl]methyl]dibenz[b,f][1,4]oxazepine-10(11H)carboxamide, monohydrochloride] | 80 | 1.70 | 
CC(C)(CNC(=O)OCc1ccccc1)NC(=O)N1Cc2ccccc2Oc2ccc(Cl)cc21 [Example 18, phenylmethyl N-[2-[[(8-chlorodibenz[b,f][1,4]oxazepine-10(11H)-yl]carbonyl]amino]-2-methylpropyl]carbamate] | 40 | 2.6 | 
O.O=C(NCc1nn[nH]n1)N1Cc2ccccc2Oc2ccc(Cl)cc21.[Na] [Example 20, 8-chloro-N-[(2H-tetrazol-5-yl)methyl]dibenz[b,f][1,4]oxazepine-10(11H)-carboxamide, sodium salt, hydrate] |  | 1.80 | responders at 30 mg/kg ([1]; Mus musculus): 20%
O=C(NCCCCc1ccncc1)N1Cc2ccccc2Oc2ccc(Cl)cc21 [Example 24, 8-chloro-N-[4-(4-pyridinyl)butyl]dibenz[b,f][1,4]oxazepine-10(11H)-carboxamide] | 60 | 7.9 | 
CC(C)(CNC(=O)c1ccncc1)NC(=O)N1Cc2ccccc2Oc2ccc(Cl)cc21 [Example 28, 8-chloro-N-[2-[[(4-pyridinyl)carbonyl]amino-1,1-dimethylethyl]dibenz[b,f][1,4]oxazepine-10(11H)carboxamide, hydrochloride hydrate] | 20 | 2.0 | 
CCN(CC)CCCCCOC(=O)N1Cc2ccccc2Oc2ccc(Cl)cc21 [Example 29, 5-(diethylamino)pentyl 8-chlorodibenz[b,f][1,4]oxazepine-10(11H)-carboxylate] | 70 |  | potency in the Writhing Assay (in words) ([1]; mice, I.G.): most potent compound of the invention tested in this assay
COC(=O)[C@@H](C)NC(=O)N1Cc2ccccc2Oc2ccc(Cl)cc21 [Example 31, methyl (D)-2R-[[(8-chlorodibenz[b,f][1,4]oxazepine-10(11H)-yl)carbonyl]amino]propanoate] | 80 | 1.4 | 
COC(=O)[C@H](C)NC(=O)N1Cc2ccccc2Oc2ccc(Cl)cc21 [Example 32, methyl (L)-2R-[[(8-chlorodibenz[b,f][1,4]oxazepine-10-(11H)-yl)carbonyl]amino]propanoate] |  | 3.5 | ED50 ([1]; Mus musculus, po, I.G., mice, PBQ, read-out: WRITHING ASSAY, ED50 Dose): 7.2 mg/kg
C[C@@H](NC(=O)N1Cc2ccccc2Oc2ccc(Cl)cc21)C(=O)O [Example 33, (D)-2R-[[(8-chlorodibenz[b,f][1,4]oxazepine-10(11H)yl)carbonyl]amino]propanoic acid] | 60 | 2.0 | 
C[C@H](NC(=O)N1Cc2ccccc2Oc2ccc(Cl)cc21)C(=O)O [Example 34, (L)-2S-[[(8-chlorodibenz[b,f][1,4]oxazepine-10(11H)yl)carbonyl]amino]propanoic acid] | 20 | 1.7 | 
O=C(OCc1ccccc1)N1Cc2ccccc2Oc2ccc(Cl)cc21 [Example 43, phenylmethyl 8-chlorodibenz[b,f][1,4]oxazepine-10(11H)-carboxylate] |  | 0.3 | 
O=C(OCc1ccncc1)N1Cc2ccccc2Oc2ccc(Cl)cc21 [Example 44, (4-pyridinyl)methyl 8-chlorodibenz[b,f][1,4]oxazepine-10(11H)-carboxylate] |  | 365 | 
O=C(NCc1ccncc1)N1Cc2ccccc2Oc2ccc(Cl)cc21 [Example 45, 8-chloro-N-(4-pyridinylmethyl)dibenz[b,f][1,4]oxazepine-10(11H)carboxamide,monohydrochloride] | 60 | 1.0 | 
O=C(NCc1cccnc1)N1Cc2ccccc2Oc2ccc(Cl)cc21 [Example 46, 8-chloro-N-(3-pyridinylmethyl)dibenz[b,f]oxazepine-10(11H)-carboxamide, monohydrochloride] | 40 | 2.7 | 
O=C(NCc1ccccn1)N1Cc2ccccc2Oc2ccc(Cl)cc21 [Example 47, 8-chloro-N-(2-pyridinylmethyl)dibenz[b,f][1,4]oxazepine-10(11H)-carboxamide, monohydrochloride] | 80 |  | 
